Assay results taken from ChEMBL document CHEMBL1152871, “Synthesis of citrate-ciprofloxacin conjugates” (2009).

Legend:
Assay type in all cases: functional
[1] = tested on: Staphylococcus haemolyticus; test: Antimicrobial activity against Staphylococcus haemolyticus NCTC 11042 at 5 ug/disk after 18 to 20 hrs by disk diffusion assay; conditions: read-out: IZ
Staphylococcus aureus [2] = test: Antimicrobial activity against ciprofloxacin and methicillin-resistant Staphylococcus aureus HG-1 at 5 ug/disk after 18 to 20 hrs by disk diffusion assay; conditions: read-out: IZ
Pseudomonas aeruginosa [3] = test: Antimicrobial activity against Pseudomonas aeruginosa BIG 0039 at 5 ug/disk after 18 to 20 hrs by disk diffusion assay; conditions: read-out: IZ
Escherichia coli [4] = test: Antimicrobial activity against isogenic Escherichia coli K-12 […] mutant at 0.15 ug after overnight incubation in presence of 1000 uM Fe3-cation
Escherichia coli [5] = test: Antimicrobial activity against isogenic Escherichia coli K-12 […] mutant at 0.15 ug after overnight incubation in presence of 1 uM Fe3-cation
Staphylococcus aureus [6] = test: Antimicrobial activity against Staphylococcus aureus NCTC 10399 at 5 ug/disk after 18 to 20 hrs by disk diffusion assay; conditions: read-out: IZ
Escherichia coli [7] = test: Antimicrobial activity against ciprofloxacin-resistant Escherichia coli BIG 0051 at 5 ug/disk after 18 to 20 hrs by disk diffusion assay; conditions: read-out: IZ
Burkholderia cepacia = test: Antimicrobial activity against Burkholderia cepacia NCTC 10744 at 5 ug/disk after 18 to 20 hrs by disk diffusion assay; conditions: read-out: IZ
[8] = tested on: Staphylococcus epidermidis; test: Antimicrobial activity against Staphylococcus epidermidis NCTC 11047 at 5 ug/disk after 18 to 20 hrs by disk diffusion assay; conditions: read-out: IZ
Pseudomonas aeruginosa [9] = test: Antimicrobial activity against Pseudomonas aeruginosa NCTC 6749 at 5 ug/disk after 18 to 20 hrs by disk diffusion assay; conditions: read-out: IZ
Escherichia coli [10] = test: Antimicrobial activity against wild-type Escherichia coli K-12 BW-25113 at 0.15 ug after overnight incubation in presence of 1 uM Fe3-cation
Staphylococcus aureus [11] = test: Antimicrobial activity against ciprofloxacin and epidemic methicillin-resistant Staphylococcus aureus BIG 0052 at 5 ug/disk after 18 to 20 hrs by disk diffusion assay; conditions: read-out: IZ
Pseudomonas aeruginosa [12] = test: Antimicrobial activity against Pseudomonas aeruginosa NCTC 10662 at 5 ug/disk after 18 to 20 hrs by disk diffusion assay; conditions: read-out: IZ
Escherichia coli [13] = test: Antimicrobial activity against Escherichia coli NCTC 10418 at 5 ug/disk after 18 to 20 hrs by disk diffusion assay; conditions: read-out: IZ
Staphylococcus aureus [14] = test: Antimicrobial activity against Staphylococcus aureus NCTC 6571 at 5 ug/disk after 18 to 20 hrs by disk diffusion assay; conditions: read-out: IZ
[15] = tested on: Staphylococcus epidermidis; test: Antimicrobial activity against Staphylococcus epidermidis NCTC 2749 at 5 ug/disk after 18 to 20 hrs by disk diffusion assay; conditions: read-out: IZ
Escherichia coli [16] = test: Antimicrobial activity against ciprofloxacin-resistant Escherichia coli BIG 0046 at 5 ug/disk after 18 to 20 hrs by disk diffusion assay; conditions: read-out: IZ
Escherichia coli [17] = test: Antimicrobial activity against wild-type Escherichia coli K-12 BW-25113 at 0.15 ug after overnight incubation in presence of 1000 uM Fe3-cation
Pseudomonas aeruginosa [18] = test: Antimicrobial activity against Pseudomonas aeruginosa BIG 0037 at 5 ug/disk after 18 to 20 hrs by disk diffusion assay; conditions: read-out: IZ
Staphylococcus aureus [19] = test: Antimicrobial activity against epidemic methicillin-resistant Staphylococcus aureus NCTC 13142 at 5 ug/disk after 18 to 20 hrs by disk diffusion assay; conditions: read-out: IZ
Staphylococcus aureus [20] = test: Antimicrobial activity against ciprofloxacin and epidemic methicillin-resistant Staphylococcus aureus NCTC 13143 at 5 ug/disk after 18 to 20 hrs by disk diffusion assay; conditions: read-out: IZ
Serratia marcescens = test: Antimicrobial activity against Serratia marcescens NCTC 1377 at 5 ug/disk after 18 to 20 hrs by disk diffusion assay; conditions: read-out: IZ
Pseudomonas aeruginosa [21] = test: Antimicrobial activity against Pseudomonas aeruginosa BIG 0063 at 5 ug/disk after 18 to 20 hrs by disk diffusion assay; conditions: read-out: IZ

| SMILES | zone of inhibition at 5 µg/disc [1] [mm] | zone of inhibition at 5 µg/disc (Staphylococcus aureus [2]) [mm] | zone of inhibition at 5 µg/disc (Pseudomonas aeruginosa [3]) [mm] | zone of inhibition at 5 µg/disc (Staphylococcus aureus [6]) [mm] | zone of inhibition at 5 µg/disc (Escherichia coli [7]) [mm] | zone of inhibition at 5 µg/disc (Burkholderia cepacia) [mm] | zone of inhibition at 5 µg/disc [8] [mm] | zone of inhibition at 5 µg/disc (Pseudomonas aeruginosa [9]) [mm] | zone of inhibition at 5 µg/disc (Staphylococcus aureus [11]) [mm] | zone of inhibition at 5 µg/disc (Pseudomonas aeruginosa [12]) [mm] | zone of inhibition at 5 µg/disc (Escherichia coli [13]) [mm] | zone of inhibition at 5 µg/disc (Staphylococcus aureus [14]) [mm] | zone of inhibition at 5 µg/disc [15] [mm] | zone of inhibition at 5 µg/disc (Escherichia coli [16]) [mm] | zone of inhibition at 5 µg/disc (Pseudomonas aeruginosa [18]) [mm] | zone of inhibition at 5 µg/disc (Staphylococcus aureus [19]) [mm] | zone of inhibition at 5 µg/disc (Staphylococcus aureus [20]) [mm] | zone of inhibition at 5 µg/disc (Serratia marcescens) [mm] | zone of inhibition at 5 µg/disc (Pseudomonas aeruginosa [21]) [mm] | other results |
| --- | --- | --- | --- | --- | --- | --- | --- | --- | --- | --- | --- | --- | --- | --- | --- | --- | --- | --- | --- | --- |
| O=C(O)CC(O)(CC(=O)N1CCN(c2cc3c(cc2F)c(=O)c(C(=O)O)cn3C2CC2)CC1)C(=O)O (centres undefined) | 30 | 0 | 18 | 20 | 0 | 18 | 28 | 23 | 0 | 23 | 30 | 17 | 28 | 0 | 25 | – | – | – | – | inhibition zone (IZ) (Escherichia coli [4]): 0.8 cm; inhibition zone (IZ) (Escherichia coli [5]): 0.6 cm; inhibition zone (IZ) (Escherichia coli [10]): 1.1 cm; inhibition zone (IZ) (Escherichia coli [17]): 1.3 cm |
| O=C(O)CC(O)(CC(=O)O)C(=O)N1CCN(c2cc3c(cc2F)c(=O)c(C(=O)O)cn3C2CC2)CC1 | 20 | 0 | – | 23 | 0 | 18 | 21 | – | 0 | – | 27 | 20 | 24 | 0 | 24 | 21 | 0 | 25 | 24 | – |
| O=C(O)c1cn(C2CC2)c2cc(N3CCNCC3)c(F)cc2c1=O [CIPROFLOXACIN] | 25 | 0 | 27 | 27 | 0 | 22 | 25 | 35 | 0 | 31 | 32 | 24 | 29 | 0 | 31 | 22 | 0 | 30 | 32 | – |
